A word on the IC50: it is the concentration that inhibits the measured activity by half. The Ki is the dissociation constant of the complex between target and ligand, obtained from inhibition or displacement.

We go through 14 molecules from ChEMBL document CHEMBL3396993, “Inhibition of monoamine oxidase by indole-5,6-dicarbonitrile derivatives” (Bioorg Med Chem Lett, 2015).

For data set [1], the target named is T1, Amine oxidase [flavin-containing] A (Homo sapiens, UniProt P21397).
T1 sequence (P21397 whole entry): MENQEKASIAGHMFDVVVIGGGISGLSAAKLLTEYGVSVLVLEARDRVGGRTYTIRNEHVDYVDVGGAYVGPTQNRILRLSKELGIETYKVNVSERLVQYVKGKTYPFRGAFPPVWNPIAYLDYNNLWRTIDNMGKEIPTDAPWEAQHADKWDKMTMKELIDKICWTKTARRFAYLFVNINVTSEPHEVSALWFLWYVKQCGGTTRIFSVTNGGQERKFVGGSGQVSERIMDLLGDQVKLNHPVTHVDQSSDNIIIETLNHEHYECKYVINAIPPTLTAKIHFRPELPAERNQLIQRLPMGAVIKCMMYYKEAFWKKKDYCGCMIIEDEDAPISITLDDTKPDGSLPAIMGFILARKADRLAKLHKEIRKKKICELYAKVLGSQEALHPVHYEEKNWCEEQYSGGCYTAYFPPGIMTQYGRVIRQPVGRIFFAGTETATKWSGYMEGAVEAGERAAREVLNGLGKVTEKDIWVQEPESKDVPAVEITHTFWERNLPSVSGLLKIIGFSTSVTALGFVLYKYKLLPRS

The target of data set [2] is T2, Amine oxidase [flavin-containing] B (Homo sapiens, UniProt P27338).
T2 sequence (P27338 whole entry): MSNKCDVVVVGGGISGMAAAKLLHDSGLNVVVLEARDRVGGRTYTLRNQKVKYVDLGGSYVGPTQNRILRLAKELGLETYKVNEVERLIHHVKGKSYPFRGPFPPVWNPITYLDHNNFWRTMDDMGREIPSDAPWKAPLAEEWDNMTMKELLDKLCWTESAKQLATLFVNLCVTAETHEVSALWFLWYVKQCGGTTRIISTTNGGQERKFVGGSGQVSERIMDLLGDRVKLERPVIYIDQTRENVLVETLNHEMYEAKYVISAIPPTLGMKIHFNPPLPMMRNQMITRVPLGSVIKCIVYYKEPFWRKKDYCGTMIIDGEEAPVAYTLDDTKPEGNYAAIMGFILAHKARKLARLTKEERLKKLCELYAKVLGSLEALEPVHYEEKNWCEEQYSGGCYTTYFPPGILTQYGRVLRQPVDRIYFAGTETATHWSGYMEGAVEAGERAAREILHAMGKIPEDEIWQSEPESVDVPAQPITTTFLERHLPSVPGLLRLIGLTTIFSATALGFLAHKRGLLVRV

Data set [3] concerns the target T1, Amine oxidase [flavin-containing] A. Put plainly: Reversible inhibition of human recombinant MAO-A using kynuramine substrate assessed as enzyme activity recovered at 4 times of IC50 concentration incubated for 15 mins and subsequently dialyzed for 24 hrs relative to control. The arrangement: scale not given: the % may be the effect or the level left. To be noted: 0.25 h.

Data set [4] concerns the target T2, Amine oxidase [flavin-containing] B. Put plainly: Reversible inhibition of human recombinant MAO-B using kynuramine substrate assessed as enzyme activity recovered at 4 times of IC50 concentration incubated for 15 mins and subsequently dialyzed for 24 hrs relative to control. The arrangement: scale not given: the % may be the effect or the level left. To be noted: 0.25 h.

For data set [5], the target named is T1, Amine oxidase [flavin-containing] A. Put plainly: Reversible inhibition of human recombinant MAO-A using kynuramine substrate assessed as enzyme activity recovered at 4 times of IC50 concentration incubated for 15 mins relative to control. The arrangement: scale not given: the % may be the effect or the level left. To be noted: 0.25 h.
In data set [6] the target is T2, Amine oxidase [flavin-containing] B. Put plainly: Reversible inhibition of human recombinant MAO-B using kynuramine substrate assessed as enzyme activity recovered at 4 times of IC50 concentration incubated for 15 mins relative to control. The arrangement: scale not given: the % may be the effect or the level left. To be noted: 0.25 h.
In data set [7] the target is T1, Amine oxidase [flavin-containing] A. Put plainly: Reversible inhibition of human recombinant MAO-A using kynuramine substrate assessed as enzyme activity recovered at 4 times of IC50 concentration incubated for 15 mins and subsequently dialyzed for 24 hrs relative to control in presence of pargyline. The arrangement: scale not given: the % may be the effect or the level left. To be noted: 0.25 h.

Data set [8] addresses T2, Amine oxidase [flavin-containing] B. Put plainly: Reversible inhibition of human recombinant MAO-B using kynuramine substrate assessed as enzyme activity recovered at 4 times of IC50 concentration incubated for 15 mins and subsequently dialyzed for 24 hrs relative to control in presence of (R)-deprenyl. The arrangement: scale not given: the % may be the effect or the level left. To be noted: 0.25 h.

The target in data set [9] is T1, Amine oxidase [flavin-containing] A. Put plainly: Inhibition of human recombinant MAO-A assessed as kynuramine substrate by Lineweaver-Burk plot analysis.
Data set [10] concerns the target T2, Amine oxidase [flavin-containing] B. Put plainly: Inhibition of human recombinant MAO-B assessed as kynuramine substrate by Lineweaver-Burk plot analysis.

Molecules are shown by their SMILES.

On to `COc1ccc(-c2c(Br)c3cc(C#N)c(C#N)cc3n2OC)cc1`, for which the IC50 in [1] and in [2] was more than 100000 nM each time.

In [2], `N#Cc1ccc(OC/C=C/c2ccccc2)cc1C#N` displayed an IC50 of 642 nM.

Consider `Cc1ccc(-c2[nH]c3cc(C#N)c(C#N)cc3c2Cl)cc1`, for which the IC50 is 14 nM in data set [1] and 17 nM in data set [2]. Further, the Activity in data set [3] came to 77%; in data set [4], 78%; in data set [5] it was 43%; in [6], 37%; in data set [7] it was 1.6%; in [8], 3.1%. The Ki in [9] was 18 nM; in [10] it was 16 nM.

With `N#Cc1cc2[nH]c(-c3cccs3)c(Cl)c2cc1C#N`, the IC50 in data set [1] amounted to 118 nM; in data set [2] it was 1270 nM.

As to `COc1ccc(-c2c(Br)c3cc(C#N)c(C#N)cc3n2O)cc1`, the IC50 in [1] was determined as 726 nM; in data set [2], 1520 nM.

On to `N#Cc1cc2c(Br)c(-c3ccccc3)n(O)c2cc1C#N`, for which the IC50 in data set [1] stood at 3480 nM; in data set [2], 11900 nM.

Regarding `COc1ccc(-c2[nH]c3cc(C#N)c(C#N)cc3c2Cl)cc1`, the concentration for half-maximal inhibition (IC50) stood at 4 nM in [1] and 20 nM in [2].

Regarding `Cc1ccc(-c2c(Br)c3cc(C#N)c(C#N)cc3n2O)cc1`, the figures for the IC50 in data set [1] and in [2] were 2190 nM and 2860 nM, respectively.

For the molecule `COc1ccc(-c2c(Cl)c3cc(C#N)c(C#N)cc3n2C)cc1`, the results for the IC50 in data set [1] and in data set [2] were 129 nM and more than 100000 nM, respectively.

Turning to `N#Cc1ccc(OCc2ccc(Br)cc2)cc1C#N`, the half-maximal inhibitory concentration (IC50) in data set [1] stood at 6.6 nM.

For `Cc1ccc(-c2c(Cl)c3cc(C#N)c(C#N)cc3n2C)cc1`, the 50% inhibitory concentration (IC50) in [1] was 19400 nM; in data set [2], more than 100000 nM.

On to `N#Cc1cc2[nH]c(-c3ccccc3)c(Cl)c2cc1C#N`, for which the concentration for half-maximal inhibition (IC50) in [1] stood at 121 nM; in [2], 144 nM.

On to `Cn1c(-c2ccccc2)c(Cl)c2cc(C#N)c(C#N)cc21`, for which the IC50 was 142 nM in [1] and more than 100000 nM in [2].

As for `Cn1c(-c2cccs2)c(Cl)c2cc(C#N)c(C#N)cc21`, the results for the IC50 in [1] and in [2] were 35 nM and more than 100000 nM, respectively.
